Laboratory results as given in patent US5043343A (priority 1989, dated 1991).
Where a name gives a salt, the structure may show the parent alone.

How the values were obtained:
[1] = molecular target: muscarinic receptors (3H-QNB site, cerebral cortex); type: binding, Hooded Lister rats; conditions: 0.27nM 3H-QNB, tris buffer pH 7.7, 37° C., 30 min; rat cerebral cortex
[2] = molecular target: muscarinic receptors (3H-OXO-M site, cerebral cortex); experiment: Radio ligand binding: displacement of muscarinic agonist 3H-Oxotremorine-M (3H-OXO-M), rat cerebral cortex membranes; parameters: species or system Hooded Lister rats; conditions: 2 nM 3H-OXO-M, 2mM magnesium chloride, tris buffer pH 7.7, 37° C., 30 min

SMILES: Nc1noc(C23CCCN(C2)C3)n1 [Example E1, 5-(3-Amino-1,2,4-oxadiazol-5-yl)-1-azabicyclo[3.1.11]heptane]
- IC50 [1]: 11000 nM
- IC50 [2]: 11 nM

SMILES: Cc1noc(C23CCCN(C2)C3)n1 [Example E2, 5-(3-Methyl-1,2,4-oxadiazol-5-yl)-1-azabicyclo[3.1.1]heptane oxalate salt]
- IC50 [1]: 5000 nM
- IC50 [2]: 15 nM

SMILES: c1ncc(C23CCCN(C2)C3)o1 [Example E3, 5-(1,3-Oxazol-5-yl)-1-azabicyc[3.1.1]heptane oxalate salt]
- IC50 [1]: 6250 nM
- IC50 [2]: 37 nM

SMILES: c1coc(C23CCCN(C2)C3)n1 [Example E4, 5-(1,3-Oxazol-2-yl)-1-azabicvclo[3.1.1]heptane oxalate salt]
- IC50 [1]: 60000 nM
- IC50 [2]: 540 nM

SMILES: CCc1noc(C23CCCN(C2)C3)n1 [Example E5, 5-(3-Ethyl-1.2.4-oxadiazol-5-yl)-1-azabicyclo[3.1.11]-heptane oxalate salt]
- IC50 [1]: 5200 nM
- IC50 [2]: 71 nM

SMILES: CCCc1noc(C23CCCN(C2)C3)n1 [Example E6, 5-(3-Propyl-1,2,4-oxadiazol-5-yl)-1-azabicyclo[3.1.11]heptane oxalate salt]
- IC50 [1]: 1700 nM
- IC50 [2]: 40 nM

SMILES: C1CN2CC(c3nc(C4CC4)no3)(C1)C2 [Example E7, 5-(3-Cyclopropyl-1,2,4-oxadiazol-5-yl)-1-azabicyclo-[3.1.1]heptane oxalate salt]
- IC50 [1]: 580 nM
- IC50 [2]: 62 nM

SMILES: CCCCc1noc(C23CCCN(C2)C3)n1 [Example E8, 5-(3-Butyl-1,2,4-oxadiazol-5-yl)-1-azabicyclo[3.1.11]heptane oxalate salt]
- IC50 [1]: 1950 nM
- IC50 [2]: 49 nM

SMILES: COCc1noc(C23CCCN(C2)C3)n1 [Example E9, 5-(3-Methoxymethyl-1,2,4-oxadiazol-5-yl)-1-azabicyclo-[3.1.11]heptane oxalate salt]
- IC50 [1]: 13000 nM
- IC50 [2]: 178 nM

SMILES: CCCCCc1noc(C23CCCN(C2)C3)n1 [Example E10, 5-(3-Pentyl-1,2,4-oxadiazol-5-yl)-1-azabicyclo[3.1.1]heptane oxalate salt]
- IC50 [1]: 2400 nM
- IC50 [2]: 141 nM

SMILES: C/C=C/Cc1noc(C23CCCN(C2)C3)n1 [Example E11, E-5-(3-But-2-enyl-1,2,4-oxadiazol-5-yl)-1-azabicyclo-[3.1.11]heptane oxalate salt]
- IC50 [1]: 1850 nM
- IC50 [2]: 165 nM

SMILES: Cc1nnc(C23CCCN(C2)C3)o1 [Example E13, 5-(2-Methyl-1,3,4-oxadiazol-5-yl)-1-azabicyclo[3 1.1]heptane oxalate salt]
- IC50 [1]: 16500 nM
- IC50 [2]: 207 nM

SMILES: CO/N=C/C12CCCN(C1)C2 [Example E14, oxalate salt]
- IC50 [1]: 24000 nM
- IC50 [2]: 109 nM

SMILES: CON=C(C)C12CCCN(C1)C2 [Example E15, E and Z-5-Acetyl-1-azabicyclo[3.1.1]heptane O-methyloxime oxalate salt]
- IC50 [1]: 58000 nM
- IC50 [2]: 290 nM
